Tested on: E. coli MG1655
Assay: Growth of E. coli MG1655 in TMI-supplemented media with fluorofolin
Assay type: cell-based, Escherichia coli

For `Nc1nc(N)c2c(ccc3c2ccn3Cc2ccnc(F)c2)n1` [fluorofolin], the “OD600 of E. coli MG1655” value (Fluorofolin + TMI, Time 410 min) was 0.155, the “OD600 of E. coli MG1655” value (Fluorofolin + TMI, Time 420 min) was 0.1585 and the “OD600 of E. coli MG1655” value (Fluorofolin + TMI, Time 430 min) was 0.163. For the same compound, the “OD600 of E. coli MG1655” value (Fluorofolin + TMI, Time 440 min) was 0.167, the “OD600 of E. coli MG1655” value (Fluorofolin + TMI, Time 450 min) was 0.1715 and the “OD600 of E. coli MG1655” value (Fluorofolin + TMI, Time 460 min) was 0.176. For the same compound, the “OD600 of E. coli MG1655” value (Fluorofolin + TMI, Time 470 min) was 0.181, the “OD600 of E. coli MG1655” value (Fluorofolin + TMI, Time 480 min) was 0.1855 and the “OD600 of E. coli MG1655” value (Fluorofolin + TMI, Time 490 min) was 0.19. For the same compound, the “OD600 of E. coli MG1655” value (Fluorofolin + TMI, Time 500 min) was 0.1955, the “OD600 of E. coli MG1655” value (Fluorofolin + TMI, Time 510 min) was 0.2005 and the “OD600 of E. coli MG1655” value (Fluorofolin + TMI, Time 520 min) was 0.2055. The “OD600 of E. coli MG1655” value (Fluorofolin + TMI, Time 530 min) was 0.21, the “OD600 of E. coli MG1655” value (Fluorofolin + TMI, Time 540 min) was 0.2145 and the “OD600 of E. coli MG1655” value (Fluorofolin + TMI, Time 970 min) was 0.33. The “OD600 of E. coli MG1655” value (Fluorofolin, Time 10 min) was -0.0085, the “OD600 of E. coli MG1655” value (Fluorofolin, Time 70 min) was -0.005 and the “OD600 of E. coli MG1655” value (Fluorofolin, Time 80 min) was -0.003. For the same compound, the “OD600 of E. coli MG1655” value (Fluorofolin, Time 90 min) was -0.0015, the “OD600 of E. coli MG1655” value (Fluorofolin, Time 100 min) was 0.001 and the “OD600 of E. coli MG1655” value (Fluorofolin, Time 110 min) was 0.0035. For the same compound, the “OD600 of E. coli MG1655” value (Fluorofolin, Time 120 min) was 0.006, the “OD600 of E. coli MG1655” value (Fluorofolin, Time 130 min) was 0.009 and the “OD600 of E. coli MG1655” value (Fluorofolin, Time 140 min) was 0.0125. For the same compound, the “OD600 of E. coli MG1655” value (Fluorofolin, Time 150 min) was 0.0155, the “OD600 of E. coli MG1655” value (Fluorofolin, Time 160 min) was 0.018 and the “OD600 of E. coli MG1655” value (Fluorofolin, Time 170 min) was 0.02. For the same compound, the “OD600 of E. coli MG1655” value (Fluorofolin, Time 180 min) was 0.023, the “OD600 of E. coli MG1655” value (Fluorofolin, Time 190 min) was 0.0255 and the “OD600 of E. coli MG1655” value (Fluorofolin, Time 200 min) was 0.028. For the same compound, the “OD600 of E. coli MG1655” value (Fluorofolin, Time 210 min) was 0.0305, the “OD600 of E. coli MG1655” value (Fluorofolin, Time 220 min) was 0.033 and the “OD600 of E. coli MG1655” value (Fluorofolin, Time 230 min) was 0.035. The “OD600 of E. coli MG1655” value (Fluorofolin, Time 240 min) was 0.0365, the “OD600 of E. coli MG1655” value (Fluorofolin, Time 250 min) was 0.0395 and the “OD600 of E. coli MG1655” value (Fluorofolin, Time 260 min) was 0.0405. For the same compound, the “OD600 of E. coli MG1655” value (Fluorofolin, Time 270 min) was 0.042, the “OD600 of E. coli MG1655” value (Fluorofolin, Time 280 min) was 0.044 and the “OD600 of E. coli MG1655” value (Fluorofolin, Time 290 min) was 0.0455. The “OD600 of E. coli MG1655” value (Fluorofolin, Time 300 min) was 0.0475, the “OD600 of E. coli MG1655” value (Fluorofolin, Time 310 min) was 0.0485 and the “OD600 of E. coli MG1655” value (Fluorofolin, Time 320 min) was 0.0505. For the same compound, the “OD600 of E. coli MG1655” value (Fluorofolin, Time 330 min) was 0.0515, the “OD600 of E. coli MG1655” value (Fluorofolin, Time 340 min) was 0.053 and the “OD600 of E. coli MG1655” value (Fluorofolin, Time 350 min) was 0.0545. The “OD600 of E. coli MG1655” value (Fluorofolin, Time 360 min) was 0.0555, the “OD600 of E. coli MG1655” value (Fluorofolin, Time 370 min) was 0.0565 and the “OD600 of E. coli MG1655” value (Fluorofolin, Time 380 min) was 0.0575. For the same compound, the “OD600 of E. coli MG1655” value (Fluorofolin, Time 390 min) was 0.058, the “OD600 of E. coli MG1655” value (Fluorofolin, Time 400 min) was 0.059 and the “OD600 of E. coli MG1655” value (Fluorofolin, Time 410 min) was 0.0595. The “OD600 of E. coli MG1655” value (Fluorofolin, Time 420 min) was 0.0605, the “OD600 of E. coli MG1655” value (Fluorofolin, Time 430 min) was 0.061 and the “OD600 of E. coli MG1655” value (Fluorofolin, Time 440 min) was 0.0615. The “OD600 of E. coli MG1655” value (Fluorofolin, Time 450 min) was 0.062, the “OD600 of E. coli MG1655” value (Fluorofolin, Time 460 min) was 0.062 and the “OD600 of E. coli MG1655” value (Fluorofolin, Time 470 min) was 0.063. For the same compound, the “OD600 of E. coli MG1655” value (Fluorofolin, Time 480 min) was 0.0635, the “OD600 of E. coli MG1655” value (Fluorofolin, Time 490 min) was 0.0635 and the “OD600 of E. coli MG1655” value (Fluorofolin, Time 500 min) was 0.064. The “OD600 of E. coli MG1655” value (Fluorofolin, Time 510 min) was 0.064, the “OD600 of E. coli MG1655” value (Fluorofolin, Time 520 min) was 0.064 and the “OD600 of E. coli MG1655” value (Fluorofolin, Time 530 min) was 0.064. For the same compound, the “OD600 of E. coli MG1655” value (Fluorofolin, Time 540 min) was 0.064 and the “OD600 of E. coli MG1655” value (Fluorofolin, Time 970 min) was 0.053.
